These results are taken from a melting point compilation (Tetko et al.; mined from patent text by program, amines drawn as free bases though some values may be those of a salt).

In general, melting point refers to the temperature of the solid-liquid transition.

`O=C(O)c1ccccc1C(=O)c1ccc(N2CCOCC2)cc1O` registered a melting point of 184 to 187 °C.

Compound `CCOC(=O)c1cn(-c2cccc(COCc3ccccn3)c2)cn1` came in with a melting point of 76.7 to 78.8 °C.

`N#CCCN(C(N)=O)C1CCCCC1` yielded a melting point of 110 to 112 °C.

The compound `Cc1c(F)c(N2CCC(n3cc(-c4ccccc4)nn3)C2)c(F)c2c1c(=O)c(C(=O)O)cn2C1CC1` (centres undefined) displayed a melting point of 221 °C.

`Clc1ccc2nc(CN3CCN(c4ccccc4)CC3)[nH]c2c1` showed a melting point of 198 to 201 °C.

Consider `Nc1nc(N)nc(N2CC=CCC2)n1`, for which the melting point is 200 to 202 °C.

As to `O=[N+]([O-])c1ccc(N2CCCC2)c(S(=O)(=O)O)c1`, the melting point lay within 178 to 179 °C.

In turn, `CCOC(=O)C(CCc1ccccc1)NC(CCCCNC(=O)CNC(=O)OC(C)(C)C)C(=O)O` (centres undefined) registered a melting point of 137 °C.

`Cn1nncc1-c1cc(C=O)c2occc2c1` gave a melting point of 180 to 182 °C.

The compound `CCCCNC(=O)OC1c2nccnc2C(=O)N1c1ccc2ccc(Cl)nc2n1` (centres undefined) had a melting point of 264 °C.

The compound `CC(Oc1ccc(N(C)c2nnc3cc(Cl)ccc3n2)cc1)C(=O)O` (centres undefined) displayed a melting point of 125 °C.

For the compound `COc1cccc(F)c1-c1cc(NC(=O)C2CCNCC2)ncn1`, the melting point was 140 to 143 °C.

The compound `NS(=O)(=O)c1ccc(C2=C(c3ccc(F)cc3)CC3(CCC3)C2)cc1` registered a melting point of 118 to 119 °C.

`CC(C)(C)OC(=O)N1CCCN(c2cncc(-c3cccc([N+](=O)[O-])c3)c2)CC1` displayed a melting point of 129 to 130 °C.

Turning to `CCCCCCCCCCCCCCCCSCC(CO)n1nnnc1C` (centres undefined), the melting point was 77 to 78 °C.

The compound `CCOC(=O)C1=C(C)Nc2snc(CCCOCc3ccccc3)c2C1c1cccc([N+](=O)[O-])c1` (centres undefined) returned a melting point of 109 to 110 °C.

Compound `O=c1[nH]c2scc(C3CC3)c2[nH]c1=O` registered a melting point of over 250 °C.

In the case of `COC(=O)CCCc1cc2nc(Cl)ccc2n1S(=O)(=O)c1cccc(-c2cncs2)c1`, the melting point is 147 to 148 °C.

The compound `CC(=O)OC1(C(=O)CCl)CCC2C3CCC4=CC(=O)CCC4(C)C3CCC21C` (centres undefined) showed a melting point of 219 to 221 °C.

`Cc1ncc(N2N=C(c3ccc([N+](=O)[O-])cc3)c3cc4c(cc3CC2C)OCO4)o1` (centres undefined) yielded a melting point of 203 to 205 °C.

For the compound `CCOC(=O)c1c[nH]c2c(F)c(C(C)=O)c(F)cc2c1=O`, the melting point is 267 to 270 °C.

`NC1=NC(c2cccc(-c3cccnc3F)c2)C2=NC(c3ccc(OC(F)F)cc3)C3(CCC3)CN12` (centres undefined) came in with a melting point of 220 to 226 °C.

`Cc1ccc(C(=O)Nc2c[nH]nc2C(=O)NCCC(F)(F)F)cn1` showed a melting point of 196 to 197 °C.

As for `CC(C)(C)c1cc(CBr)ccc1O[Si](C)(C)C(C)(C)C`, the melting point lay in the range of 54 to 55 °C.

On to `Nc1nc(N)nc(-c2cnc3ccccc3c2)n1`, for which the melting point is over 250 °C.

In turn, `CC(C)(N)Cn1c(CO)nc2c(N)nc3ccccc3c21` gave a melting point of 248 to 250 °C.

Consider `O=C1C=CC(=Nc2ccccc2C(=O)N2CCCCC2)C=C1`, for which the melting point fell in the range of 74 to 76 °C.

As for `CC(C)(C)OC(=O)NCc1nc2c(C(F)(F)F)cccc2c(O)c1C(=O)Nc1nccs1`, the melting point is 238 °C.

In the case of `COC(=O)c1cccc([N+](=O)[O-])c1CS(=O)(=O)NC(=O)Nc1nc(OC)cc(OC)n1`, the melting point was 177 to 181 °C.

In turn, `CCOC(=O)/C=C/c1cn(-c2ccccc2)nc1OCc1ccccc1` displayed a melting point of 105 to 106 °C.

As for `CC(=O)c1ccc(CBr)s1`, the melting point lay within 58 to 59 °C.

The compound `COC(=O)c1cccc(Sc2ccc([N+](=O)[O-])cc2)c1` showed a melting point of 98 to 100 °C.

For the compound `Nc1cnc(-c2cc(Cl)cc(Cl)c2Cl)c(NC(=O)C2CC2)n1`, the melting point was in the range of 188 to 190 °C.

Turning to `O=C(Nc1ccc(Cl)c(C(F)(F)F)c1)Nc1ccccc1P(=O)(O)O`, the melting point was in the range of 153 to 157 °C.

In turn, `COC(=O)Nc1cn2cc(Sc3ccccc3)ccc2n1` came in with a melting point of 247 to 249 °C.

On to `Clc1ccc(-c2cn3ccccc3n2)c(Cl)c1`, for which the melting point was in the range of 174 to 177 °C.

The compound `COc1ccc(Cl)c(Oc2c(C=O)nc(N3CCOCC3)nc2NS(=O)(=O)c2ccc(C(C)C)cn2)c1` came in with a melting point of 194 °C.

`N#CCCCCCCCCCCCCC#N` returned a melting point of under 40 °C.

Compound `CCOC(=O)C(CBr)=C1CC(=O)CCC1=N` registered a melting point of 170 to 175 °C.

Regarding `CCCOCCOc1cccc2oc(C(=O)N3CCN(C)CC3)cc(=O)c12`, the melting point was 78 to 80 °C.

As for `O=C(c1ccccc1)C1CCN(CCN(C(=O)c2ccc([N+](=O)[O-])cc2)c2cccnc2)CC1`, the melting point fell in the range of 134 to 136 °C.

The compound `O=C1CC(O)c2c1cc[nH]c2=O` (centres undefined) yielded a melting point of 200 °C.

In turn, `O=C(Nc1cc2nc(-c3ccc(C(=O)C45CC6CC(CC(C6)C4)C5)cc3)[nH]c2cn1)C12CC3CC(CC(C3)C1)C2` had a melting point of 265 °C.

Compound `C=CCOc1ccc(-c2cc3[nH]c4c(c(=O)n3n2)CN(C2CCCCC2)C4=O)cc1` had a melting point of over 320 °C.

For the compound `COC[C@@H](C)n1cc(Cl)nc(N2CCc3cc(Cl)cc(Cl)c32)c1=O`, the melting point was in the range of 93 to 95 °C.

As for `CCOC(=O)C1=C(COCC#N)NC(C)=C(C(=O)OC)C1c1ccccc1Cl` (centres undefined), the melting point fell in the range of 128 to 130 °C.

In turn, `CCOC(=O)Cn1nc(O)c2ccccc21` showed a melting point of 181 to 182 °C.

The compound `NC(=O)c1nn(S(=O)(=O)c2ccccc2)c2ccccc12` yielded a melting point of 208 to 210 °C.

`Cc1cccc(C)c1N(CCCC(=O)O)C(=O)CN(C(=O)c1ccc(Cl)cc1)c1c(C)cccc1C`: the melting point was 214 to 216 °C.

`COc1ccc(C2CC(=O)N(c3ccccc3)C2)cc1OC` (centres undefined) returned a melting point of 104 °C.

For the compound `Cc1ccccc1CNC(=S)c1ccc2c(c1)N(C(C)CN1CCCC1)c1ccccc1S2` (racemic), the melting point turned out to be 110 °C.

Turning to `CN1C[C@H]2c3ccccc3CC[C@H]2CCC1=O` (relative stereo), the melting point fell in the range of 130 to 131 °C.

The compound `CC(C#N)c1ccc2nc(-c3ccccc3)ccc2c1` (centres undefined) yielded a melting point of 126 °C.

In the case of `COC(=O)c1nc(-c2ccc([Si](C)(C)C)c(F)c2F)c(F)c(N)c1OC`, the melting point lay within 123 to 125 °C.

Compound `C(/CN1CCOCC1)=C1/CCCc2c1cnn2-c1ccccc1` displayed a melting point of 114 to 116 °C.

Take `Clc1ccc(-c2c(Cc3nc4ccccc4o3)cnn2-c2ccccc2)cc1`: the melting point fell in the range of 137 to 139 °C.

Take `ClC1(c2ccccc2)c2ccccc2-c2ncncc21` (centres undefined): the melting point fell in the range of 119 to 120 °C.

`Cc1ccc(NC(=O)C(C)C)c(-c2ccnc(SC(F)(F)F)n2)c1`: the melting point was 114 to 116 °C.

`N=C(Cc1ccc(F)cc1)Nc1ncccc1OCc1ccccc1` displayed a melting point of 86 to 93 °C.

As for `O=C(NCC12CC3CC(CC(C3)C1)C2)c1cc(OCCO)ncc1Cl`, the melting point lay in the range of 154 to 155 °C.

Take `O=C(Nc1ccc(-n2nc(C(F)(F)F)cc2C(F)(F)F)cc1)c1ccccc1C(=O)c1ccccc1`: the melting point lay in the range of 204 to 205 °C.

Compound `Cc1nnc(-c2ccc3occ(-c4cnn(Cc5ccccc5)c4)c3c2)o1` displayed a melting point of 151 to 152 °C.

Turning to `O=C1Nc2ccccc2C1CCCCN1CCN(c2ccc(F)cc2)CC1` (centres undefined), the melting point was 113 to 115 °C.

As to `O=C1C(=CO)Cc2ccccc21`, the melting point was 112 to 113 °C.

For `Cc1cc2c(cc1Cl)C=C(C(=O)O)C(C(F)(F)F)S2` (centres undefined), the melting point was in the range of 240 to 242 °C.

The compound `Cc1nc(-c2ccccc2)cc(-c2cccc(C=O)c2)c1C(=O)NCCN1CCOCC1` yielded a melting point of 122 to 125 °C.

For `O=C(Cc1ccccc1)Nc1ccccc1C(F)(F)F`, the melting point stood at 104 °C.

With `COc1ccc(Oc2ccc([N+](=O)[O-])cc2)c(Cl)c1Cl`, the melting point lay within 165 to 166 °C.

As to `COC(=O)c1c(C(=O)O)nc2cc(Cl)ccc2c1O`, the melting point came to 215 °C.

The compound `Cc1nc2c(Cl)c(NC(=O)c3ccc(-c4ccccc4)cc3)ccc2s1` returned a melting point of 168 to 169 °C.

Compound `COC(=O)C(=CN(C)C)C(=O)c1cc(F)c(Cl)cc1Cl` registered a melting point of 107 to 109 °C.

On to `CCCCC(=O)Nc1c(C(=O)c2cccc(C)c2)[nH]c2cc(Cl)ccc12`, for which the melting point is 124 to 126 °C.

For `CC(C)(C)c1cc(CCc2ccccc2NC(=O)NCc2ccccc2)cc(C(C)(C)C)c1O`, the melting point is 181 to 183 °C.

For the compound `COC(=O)CCCC#Cc1cc(Cl)ccc1NS(=O)(=O)c1ccc2nc(NC(C)=O)sc2c1`, the melting point was 138 to 140 °C.

The compound `COC(=O)/C=C/c1nccs1` came in with a melting point of 75 to 75.5 °C.

Turning to `Cn1cnnc1S(=O)CC(=O)C12CC3CC(CC(C3)C1)C2` (centres undefined), the melting point was in the range of 124 to 127 °C.

The compound `CC(C)(C)c1cc(C=Cc2ccccc2O)on1` gave a melting point of 152 to 155 °C.

Compound `CCc1nc(C)cn1-c1cc2c(cc1C(F)(F)F)[nH]c(=O)c1nnc(CP(=O)(O)O)n12` displayed a melting point of over 300 °C.

`Oc1cccc([C@H]2CCCC[C@H]2NCCCCc2ccccc2)c1` (racemic) gave a melting point of 115 to 116 °C.

`CCOC(=O)OC1=C(c2c(C)cc(C)cc2C)C(=O)N(O)C12CCN(OC)CC2`: the melting point is 154 to 155 °C.

The compound `CN1CCN(C(=O)c2cc(S(=O)(=O)NC34CC5CC(CC(C5)C3)C4)ccc2N)CC1` displayed a melting point of 214 to 215 °C.

Consider `CN1C(=O)CC[C@]2(C)c3ccc(-c4ccc(C(F)(F)F)cc4[N+](=O)[O-])cc3CC[C@@H]12`, for which the melting point fell in the range of 55 to 57 °C.

`COC(=O)c1cc(C(C)=O)c(O)cc1O` displayed a melting point of 124 to 126 °C.

`Cc1sc(N2CCOCC2)nc1/C=C/c1cn(-c2ccccc2)nc1O` came in with a melting point of 278 to 279 °C.

`CCOP(=O)(OCC)N1CCN(c2cc3c(cc2F)c(=O)c(C(=O)OCCOC)cn3C2CC2)CC1` came in with a melting point of 138 to 141 °C.

For the compound `COC(=O)C(Cc1ccccc1)Oc1ccc2cc(-c3cnc(-c4cn(Cc5ccccc5)c5ccccc45)o3)ccc2c1` (centres undefined), the melting point lay within 188 to 190 °C.

For the compound `CNC(=O)c1cnc(SC)nc1Nc1ccc2[nH]ncc2c1`, the melting point fell in the range of 259 to 261 °C.

Regarding `CCCc1c2ccccc2c(O)c2c(=O)cc(C(=O)OCC)oc12`, the melting point was 148 to 150 °C.

With `OC1CCN(Cc2cccc(F)c2)CC1`, the melting point lay within 61 to 62 °C.
